US11793849B2, “Method of Chinese herbal medicine extract used for treating multiple diseases caused by drug resistant bacteria infection” (priority 2016, dated 2023)

Test system: MDRPA
Test: Checkerboard assay (combined-use MIC, FIC)
Type: cell-based, Pseudomonas aeruginosa
Settings: for FIC, all strains / MIC50 of the antibiotic after combined use / MIC90 of the antibiotic after combined use / reduction of the antibiotic's MIC50 vs single use / reduction of the antibiotic's MIC90 vs single use / share of strains with FIC ≤ 0.5: 20 MDRPAs
Description: Test methods of the sensibilization effects of the test product to similar antibiotics: it is operated by referring to a checkerboard assay recommended by NCCLS.
The checkerboard assay is performed in a 96-pore sterile culture plate.
Calculation of a Fractional Inhibitory Concentration (FIC): FIC=S20b combined-use MIC/S20b single-use MIC+antibiotic combined-use MIC/antibiotic single-use MIC. By calculating the FIC, the combined antibacterial interaction between the EA and the antibiotic is evaluated, with synergistic effect for FIC≤0.5, additive effect for 0.5<FIC≤1, indifferent effect for 1<FIC≤2 and antagonistic effect for FIC>2. According to a sterile growth pore, the optimum concentration ratio between the EA and the antibiotic is founded out. At last, the effect of the EA to strengthen the efficacy of the antibiotic is evaluated.

[1] = antibiotic with 10% ethanol extract
[2] = antibiotic with 60% ethanol extract
[3] = antibiotic with 95% ethanol extract
[4] = antibiotic with EA (water extract)

## CC(C)(O/N=C(\C(=O)N[C@@H]1C(=O)N2C(C(=O)[O-])=C(C[n+]3ccccc3)CS[C@H]12)c1csc(N)n1)C(=O)O [CAZ, Ceftazidime]
[1]
  FIC, all strains: ≤ 2
  MIC50 of the antibiotic after combined use: 16 µg/mL
  MIC90 of the antibiotic after combined use: 64 µg/mL
  reduction of the antibiotic's MIC50 vs single use: 50%
  reduction of the antibiotic's MIC90 vs single use: 75%
  share of strains with FIC ≤ 0.5: 35%
[2]
  FIC, all strains: ≤ 2
  MIC50 of the antibiotic after combined use: 8 µg/mL
  MIC90 of the antibiotic after combined use: 64 µg/mL
  reduction of the antibiotic's MIC50 vs single use: 75%
  reduction of the antibiotic's MIC90 vs single use: 75%
  share of strains with FIC ≤ 0.5: 40%
[3]
  FIC, all strains: ≤ 2
  MIC50 of the antibiotic after combined use: 16 µg/mL
  MIC90 of the antibiotic after combined use: 128 µg/mL
  reduction of the antibiotic's MIC50 vs single use: 50%
  reduction of the antibiotic's MIC90 vs single use: 50%
  share of strains with FIC ≤ 0.5: 25%
[4]
  FIC, all strains: ≤ 2
  MIC50 of the antibiotic after combined use: 8 µg/mL
  MIC90 of the antibiotic after combined use: 64 µg/mL
  reduction of the antibiotic's MIC50 vs single use: 75%
  reduction of the antibiotic's MIC90 vs single use: 75%
  share of strains with FIC ≤ 0.5: 45%
Strain P1, EA (P. clypearia 10% ethanol extract) combined with CAZ
  combined-use MIC: 16 µg/mL
Strain P1, EA (P. clypearia water extract) combined with CAZ
  combined-use MIC: 8 µg/mL
Strain P2, EA (P. clypearia 10% ethanol extract) combined with CAZ
  combined-use MIC: 16 µg/mL
Strain P2, EA (P. clypearia water extract) combined with CAZ
  combined-use MIC: 16 µg/mL
Strain P3, EA (P. clypearia 10% ethanol extract) combined with CAZ
  combined-use MIC: 2 µg/mL
Strain P3, EA (P. clypearia water extract) combined with CAZ
  combined-use MIC: 2 µg/mL
Strain P4, EA (P. clypearia 10% ethanol extract) combined with CAZ
  combined-use MIC: 64 µg/mL
Strain P4, EA (P. clypearia water extract) combined with CAZ
  combined-use MIC: 64 µg/mL
Strain P5, EA (P. clypearia 10% ethanol extract) combined with CAZ
  combined-use MIC: 32 µg/mL
Strain P5, EA (P. clypearia water extract) combined with CAZ
  combined-use MIC: 32 µg/mL
Strain P6, EA (P. clypearia 10% ethanol extract) combined with CAZ
  combined-use MIC: 256 µg/mL
Strain P6, EA (P. clypearia water extract) combined with CAZ
  combined-use MIC: 256 µg/mL
Strain P7, EA (P. clypearia 10% ethanol extract) combined with CAZ
  combined-use MIC: 32 µg/mL
Strain P7, EA (P. clypearia water extract) combined with CAZ
  combined-use MIC: 32 µg/mL
Strain P8, EA (P. clypearia 10% ethanol extract) combined with CAZ
  combined-use MIC: 64 µg/mL
Strain P8, EA (P. clypearia water extract) combined with CAZ
  combined-use MIC: 64 µg/mL
Strain P9, EA (P. clypearia 10% ethanol extract) combined with CAZ
  combined-use MIC: 4 µg/mL
Strain P9, EA (P. clypearia water extract) combined with CAZ
  combined-use MIC: 4 µg/mL
Strain P10, EA (P. clypearia 10% ethanol extract) combined with CAZ
  combined-use MIC: 2 µg/mL
Strain P10, EA (P. clypearia water extract) combined with CAZ
  combined-use MIC: 2 µg/mL
Strain P11, EA (P. clypearia 10% ethanol extract) combined with CAZ
  combined-use MIC: 1 µg/mL
Strain P11, EA (P. clypearia water extract) combined with CAZ
  combined-use MIC: 1 µg/mL
Strain P12, EA (P. clypearia 10% ethanol extract) combined with CAZ
  combined-use MIC: 2 µg/mL
Strain P12, EA (P. clypearia water extract) combined with CAZ
  combined-use MIC: 2 µg/mL
Strain P13, EA (P. clypearia 10% ethanol extract) combined with CAZ
  combined-use MIC: 4 µg/mL
Strain P13, EA (P. clypearia water extract) combined with CAZ
  combined-use MIC: 4 µg/mL
Strain P14, EA (P. clypearia 10% ethanol extract) combined with CAZ
  combined-use MIC: 8 µg/mL
Strain P14, EA (P. clypearia water extract) combined with CAZ
  combined-use MIC: 8 µg/mL
Strain P15, EA (P. clypearia 10% ethanol extract) combined with CAZ
  combined-use MIC: 128 µg/mL
Strain P15, EA (P. clypearia water extract) combined with CAZ
  combined-use MIC: 128 µg/mL
Strain P16, EA (P. clypearia 10% ethanol extract) combined with CAZ
  combined-use MIC: 8 µg/mL
Strain P16, EA (P. clypearia water extract) combined with CAZ
  combined-use MIC: 8 µg/mL
Strain P17, EA (P. clypearia 10% ethanol extract) combined with CAZ
  combined-use MIC: 8 µg/mL
Strain P17, EA (P. clypearia water extract) combined with CAZ
  combined-use MIC: 8 µg/mL
